For one data set, the target named is Trypsin (Homo sapiens, UniProt P07477+P07478+P35030). In words: Inhibition of trypsin (unknown origin) by fluorescence assay. Format: protein assay.
The next data set deals with Prothrombin (Homo sapiens, UniProt P00734). In words: Inhibition of thrombin (unknown origin) by fluorescence assay.
Data set [1] deals with T1, Suppressor of tumorigenicity 14 protein (Homo sapiens, UniProt Q9Y5Y6).
T1 sequence (Q9Y5Y6 whole entry): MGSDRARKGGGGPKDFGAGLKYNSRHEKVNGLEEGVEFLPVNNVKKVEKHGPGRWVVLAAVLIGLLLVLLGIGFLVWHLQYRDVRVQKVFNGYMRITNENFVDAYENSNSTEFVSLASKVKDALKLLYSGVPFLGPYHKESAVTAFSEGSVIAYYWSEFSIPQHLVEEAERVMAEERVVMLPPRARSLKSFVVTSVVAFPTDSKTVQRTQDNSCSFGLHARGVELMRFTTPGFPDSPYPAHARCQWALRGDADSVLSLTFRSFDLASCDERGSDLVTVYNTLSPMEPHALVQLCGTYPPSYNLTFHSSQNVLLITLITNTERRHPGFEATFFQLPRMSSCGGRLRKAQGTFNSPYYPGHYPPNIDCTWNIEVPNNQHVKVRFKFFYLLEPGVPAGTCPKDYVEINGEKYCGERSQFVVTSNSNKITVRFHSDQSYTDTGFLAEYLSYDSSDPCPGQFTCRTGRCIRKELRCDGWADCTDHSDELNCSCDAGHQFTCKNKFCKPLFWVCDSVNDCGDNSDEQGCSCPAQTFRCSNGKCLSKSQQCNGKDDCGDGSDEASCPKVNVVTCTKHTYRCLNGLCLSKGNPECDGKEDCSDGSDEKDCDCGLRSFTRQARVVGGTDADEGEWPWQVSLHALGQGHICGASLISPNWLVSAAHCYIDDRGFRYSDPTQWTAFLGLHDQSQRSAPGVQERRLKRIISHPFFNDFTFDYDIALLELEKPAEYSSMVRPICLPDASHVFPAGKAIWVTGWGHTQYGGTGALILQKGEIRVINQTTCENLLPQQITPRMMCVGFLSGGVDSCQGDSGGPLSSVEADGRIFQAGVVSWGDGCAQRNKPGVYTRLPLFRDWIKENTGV
In words: Inhibition of matriptase-SP1 (615 to 855) (unknown origin) expressed in Escherichia coli BL21(DE3) using Boc-Gln-Ala-Arg-7-amido-4-methyl coumarin hydrobromide as substrate by fluorescence assay.

The next data set has as its target Coagulation factor X (Homo sapiens, UniProt P00742). In words: Inhibition of factor 10a (unknown origin) using CH3OCO-D-CHA-Gly-Arg-pNA.AcoH as substrate.
In data set [2] the target is Urokinase-type plasminogen activator (Homo sapiens, UniProt P00749). Description: Inhibition of uPA (unknown origin) using L-PyroGlu-Gly-Arg-pNA.HCl as substrate.
In data set [3] the test system is PC-3. In words: Antimigratory activity against human PC3 cells at 10 uM incubated overnight followed by fibronectin and HGF addition measured after 24 hrs by calcein AM assay relative to control. The note with it: PC-3, 24 h. Format: functional.
Data set [4] in a line: Metabolic stability in mouse liver microsomes assessed as compound remaining at 1 uM after 20 mins by LC-MS/MS analysis. Particulars: read-out: Stability. Format: ADME, Microsome.
Data set [5] relates to DU-145. Description: Antiinvasive activity against human DU145 cells at 10 uM incubated overnight followed by fibronectin addition measured after 48 hrs by calcein AM assay relative to control. Format: functional. Particulars: DU-145, 48 h.
Data set [6] has as its system DU-145. In words: Antimigratory activity against human DU145 cells at 10 uM incubated overnight followed by fibronectin addition measured after 24 hrs by calcein AM assay relative to control. Format: functional. The note with it: DU-145, 24 h.
The subject of data set [7] is PC-3. In words: Cytotoxicity against human PC3 cells at 10 uM after 72 hrs by calcein AM assay relative to control. Format: functional.
A short description of data set [8]: Metabolic stability in mouse liver microsomes assessed as compound remaining at 1 uM after 40 mins by LC-MS/MS analysis. The note with it: read-out: Stability. Format: ADME, Microsome.
A short description of data set [9]: Kinetic aqueous solubility of the compound at pH 7.4 after 16 hrs by shake flask method. Format: physicochemical. The note with it: read-out: Kinetic_solubility.
The test system of data set [10] is DU-145. Description: Cytotoxicity against human DU145 cells at 10 uM after 72 hrs by calcein AM assay relative to control. Format: functional.
Data set [11] has as its system PC-3. Description: Antiinvasive activity against human PC3 cells at 10 uM incubated overnight followed by fibronectin and HGF addition measured after 48 hrs by calcein AM assay relative to control. Format: functional. The note with it: PC-3, 48 h.

Converted amounts (≈) assume the structure as drawn. Bounds are passed on as bounds.

Chain of Coagulation factor X (P00742 41-179 limits assumed): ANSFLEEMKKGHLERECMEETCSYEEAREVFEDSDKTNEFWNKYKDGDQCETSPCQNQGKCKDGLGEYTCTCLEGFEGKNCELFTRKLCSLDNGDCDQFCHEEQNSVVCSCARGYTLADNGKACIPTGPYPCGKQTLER
Chain of Coagulation factor X (P00742 235-488 limits assumed): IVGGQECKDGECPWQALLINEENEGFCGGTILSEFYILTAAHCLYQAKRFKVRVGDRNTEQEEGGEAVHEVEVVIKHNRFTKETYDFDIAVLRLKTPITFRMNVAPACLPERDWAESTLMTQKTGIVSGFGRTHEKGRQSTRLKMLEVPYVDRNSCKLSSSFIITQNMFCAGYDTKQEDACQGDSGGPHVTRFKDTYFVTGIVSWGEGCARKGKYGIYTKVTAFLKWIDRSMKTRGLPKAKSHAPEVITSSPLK

As usually defined, the Ki is the equilibrium dissociation constant of an inhibitor or competing ligand from its target. Low readings indicate higher affinity, high ones lower affinity. Consider `N=C(N)c1ccc(Oc2cccc(Oc3ccc(C(=N)N)cc3)n2)cc1`, for which the Ki stood at 2800 nM at Trypsin, 600 nM on Prothrombin and 9600 nM in [1].

`N=C(N)c1ccc(Oc2ccc(C(=O)NCCCN)c(Oc3ccc(C(=N)N)cc3)n2)cc1`: the Ki on Coagulation factor X was 300 nM; on Trypsin, 300 nM; in data set [2] it was greater than 10000 nM; on Prothrombin, 2100 nM; in data set [1] it was 400 nM.

With `N=C(N)c1ccc(Oc2ccc(C(=O)N3CCC(CCN)CC3)c(Oc3ccc(C(=N)N)cc3)n2)cc1`, the Ki on Coagulation factor X is 1500 nM; on Trypsin, 3600 nM; in [2], greater than 10000 nM; at Prothrombin it was greater than 2500 nM; in data set [1], 200 nM.

In the case of `N=C(N)c1ccc(Oc2cc(C(=O)N3CCC(CCN)CC3)cc(Oc3ccc(C(=N)N)cc3)n2)cc1`, the Ki is 200 nM on Coagulation factor X; 2200 nM at Trypsin; greater than 10000 nM in [2]; greater than 2500 nM on Prothrombin; 100 nM in [1].

Regarding `N=C(N)c1ccc(Oc2cc(C(=O)NC3CCN(CCCN)CC3)cc(Oc3ccc(C(=N)N)cc3)n2)cc1`, the Ki at Coagulation factor X is 100 nM; in [2], greater than 10000 nM; on Prothrombin, 2900 nM; in data set [1] it was 40 nM.

Usually inhibition stands for how much of the control response was suppressed. Consider `N=C(N)c1ccc(Oc2cc(C(=O)N[C@H]3CC[C@H](N)CC3)cc(Oc3ccc(C(=N)N)cc3)n2)cc1`, for which the inhibition at 10 µM is 53% in the data set on PC-3 [3], 69% in the data set on DU-145 [5], 65% in the data set with DU-145 [6] and 42% in the data set with PC-3 [11]. In addition, the Ki on Coagulation factor X is 400 nM; on Trypsin, 2400 nM; in [2], greater than 10000 nM; on Prothrombin, 2500 nM; in data set [1], 40 nM. Further, the remaining at 20 min, 1 µM in data set [4] worked out at 100%. Further, the Activity in the data set on PC-3 [7] is listed as 1%; in the data set on DU-145 [10], 0%. Further, the remaining at 40 min, 1 µM in data set [8] was 95.6%. In addition, the solubility kinetic at 16 h in [9] is 196 µM (≈ 95.6 µg/mL).

As for `N=C(N)c1ccc(Oc2ccc(N)c(Oc3ccc(C(=N)N)cc3)n2)cc1`, the Ki on Coagulation factor X was 1200 nM; on Trypsin it was 5500 nM; in data set [2] it was greater than 10000 nM; at Prothrombin, 4400 nM; in data set [1] it was 2900 nM.

On to `N=C(N)c1ccc(Oc2ccc(NS(=O)(=O)c3ccc(F)cc3)c(Oc3ccc(C(=N)N)cc3)n2)cc1`, for which the inhibition at 10 µM with PC-3 [3] was 65%; in the data set with DU-145 [5], 61%; in the data set on DU-145 [6] it was 69%; in the data set on PC-3 [11] it was 60%. For the same compound, the Ki was 300 nM on Coagulation factor X; 1400 nM on Trypsin; greater than 10000 nM in data set [2]; 4100 nM on Prothrombin; 200 nM in [1]. Besides, the remaining at 20 min, 1 µM in [4] worked out at 89%. The Activity with PC-3 [7] and with DU-145 [10] was 0% throughout. Besides, in data set [8], the remaining at 40 min, 1 µM turned out to be 86.5%. For the same compound, the solubility kinetic at 16 h in data set [9] was 194 µM (≈ 101 µg/mL).

Regarding `N=C(N)c1ccc(Oc2ccc(NS(=O)(=O)c3cc(F)cc(F)c3)c(Oc3ccc(C(=N)N)cc3)n2)cc1`, the Ki in [2] was greater than 10000 nM; in data set [1], 1200 nM.

On to `N=C(N)c1ccc(Oc2ccc(NS(=O)(=O)c3ccc4ccccc4c3)c(Oc3ccc(C(=N)N)cc3)n2)cc1`, for which the inhibition at 10 µM in the data set with PC-3 [3] is 39%; with DU-145 [5], 47%; with DU-145 [6] it was 59%; with PC-3 [11] it was 42%. Further, the Ki was 300 nM on Coagulation factor X; 1300 nM on Trypsin; greater than 10000 nM in [2]; 5800 nM on Prothrombin; 40 nM in [1]. In addition, the remaining at 20 min, 1 µM in data set [4] came out at 76.4%. For the same compound, the Activity in the data set on PC-3 [7] and in the data set on DU-145 [10] was 20% throughout. The remaining at 40 min, 1 µM in data set [8] was determined as 73.2%. Also, the solubility kinetic at 16 h in [9] was 191 µM (≈ 106 µg/mL).

On to `N=C(N)c1ccc(Oc2ccc(NS(=O)(=O)c3cccc4cccnc34)c(Oc3ccc(C(=N)N)cc3)n2)cc1`, for which the Ki was greater than 10000 nM in [2] and 200 nM in data set [1].

As to `N=C(N)c1ccc(Oc2ccc(C(=O)N[C@H]3CC[C@H](N)CC3)c(Oc3ccc(C(=N)N)cc3)n2)cc1`, the Ki at Coagulation factor X is 600 nM; at Trypsin it was 2000 nM; in [2] it was greater than 10000 nM; on Prothrombin, 3400 nM; in data set [1], 500 nM.

For `N=C(N)c1ccc(Oc2ccc(C(=O)NC3CCN(C(=O)CCN)CC3)c(Oc3ccc(C(=N)N)cc3)n2)cc1`, the Ki at Coagulation factor X is 2300 nM; in [2], greater than 10000 nM; at Prothrombin, 3600 nM; in data set [1] it was 600 nM.

In [1], `N=C(N)c1ccccc1` [BENZAMIDINE] showed a Ki of 400000 nM.
